Results reported in patent US5856484A, “Sulfonylaminopyrimidine carboxylic acid derivatives having endothelin inhibiting activity” (Hoffmann-La Roche Inc., priority 1995, dated 1999).

Key:
ETB receptors = target: T1, ETB receptors (Homo sapiens, UniProt P24530); experiment: Inhibition of endothelin binding to human placenta membranes (ETB receptors); conditions: 125I-endothelin, 20° C. 2 hours or 4° C. 24 hours
T1 construct: Human placenta is homogenized in 5 mM Tris buffer; from tissue; host or cells: human placenta membranes
T1 sequence (P24530 27-442): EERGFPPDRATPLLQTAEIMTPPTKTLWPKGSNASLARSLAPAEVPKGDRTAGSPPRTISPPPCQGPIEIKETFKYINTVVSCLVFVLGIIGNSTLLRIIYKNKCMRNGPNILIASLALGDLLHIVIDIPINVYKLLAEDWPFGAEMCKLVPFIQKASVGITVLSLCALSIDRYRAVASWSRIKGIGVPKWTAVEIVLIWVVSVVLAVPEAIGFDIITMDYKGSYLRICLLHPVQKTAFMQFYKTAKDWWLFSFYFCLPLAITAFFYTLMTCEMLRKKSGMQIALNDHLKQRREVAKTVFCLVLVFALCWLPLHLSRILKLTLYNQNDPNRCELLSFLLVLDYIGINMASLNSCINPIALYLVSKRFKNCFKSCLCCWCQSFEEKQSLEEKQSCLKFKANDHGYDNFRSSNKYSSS
Protocol: II. Inhibition of endothelin binding to human placenta membranes (ETB receptors) (see Life Sci 44:1429 (1989))
Human placenta is homogenized in 5 mM Tris buffer, pH 7.4, which contains 1 mM MgCl2 and 250 mM sucrose. The homogenizate is centrifuged at 4° C. and 3000 g for 15 minutes, the supernatant containing the plasma membrane fraction is centrifuged at 72000 g for 30 minutes and the precipitate is washed with 75 mM Tris buffer, pH 7.4, which contains 25 mM MgCl2. Thereafter, precipitate obtained from in each case 10 g of original tissue is suspended in 1 ml of 75 mM Tris buffer, pH 7.4, containing 25 mM MgCl2 and 250 mM sucrose and freeze-dried at -20° C. in 1 ml aliquots.
(§1) For the binding assay, the freeze-dried membrane preparations are thawed and, after centrifugation at 20° C. and 25000 g for 10 minutes, re-suspended in assay buffer (50 mM Tris buffer, pH 7.4, containing 25 mM MnCl2, 1 mM EDTA and 0.5% bovine serum albumin). 100 μl of this membrane suspension containing 35 μg of protein are incubated with 50 μl of ^125 I-endotheline (specific activity 2200 (Ci/mMol) in assay buffer (25000 cpm, final concentration 20 pM) and 100 μl of assay buffer containing varying concentrations of test compound. The incubation is carried out at 20° C. for 2 hours or at 4° C. for 24 hours. The separation of free and membrane-bound radioligands is carried out by filtration over a glass fibre filter.
(§2) The inibitory activity on ETA and ETB receptors of compounds of formula I determined in these test procedures is given in Table 1 as the IC50, i.e. as the concentration [μM] which is required to inhibit 50% of the specific binding of ^125 I-endothelin.

human ETA receptors = target: T2, human ETA receptors (Homo sapiens, UniProt P25101); experiment: Inhibition of endothelin binding to recombinant ETA receptors; conditions: 125I-endothelin, baculovirus-insect cell membranes, 20° C. 2 hours or 4° C. 24 hours
T2 construct: made in house; host or cells: baculovirus-infected insect cells
T2 sequence (P25101 21-427): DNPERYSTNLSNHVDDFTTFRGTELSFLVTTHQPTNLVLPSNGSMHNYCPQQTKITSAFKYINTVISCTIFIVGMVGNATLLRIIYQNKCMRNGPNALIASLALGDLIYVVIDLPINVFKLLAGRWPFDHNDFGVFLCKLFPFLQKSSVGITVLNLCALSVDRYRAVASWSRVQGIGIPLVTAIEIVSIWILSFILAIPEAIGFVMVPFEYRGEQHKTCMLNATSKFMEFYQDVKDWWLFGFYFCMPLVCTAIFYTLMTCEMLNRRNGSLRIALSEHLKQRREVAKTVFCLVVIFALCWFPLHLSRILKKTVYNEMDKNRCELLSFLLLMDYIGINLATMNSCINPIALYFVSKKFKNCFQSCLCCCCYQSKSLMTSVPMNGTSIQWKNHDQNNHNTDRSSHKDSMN
Protocol: I, Inhibition of endothelin binding to recombinant ETA receptors
A cDNA coding for human ETA receptors of human placenta was cloned (M. Adachi, Y.-Y. Yang, Y. Furuichi and C-Miyamoto, BBRC 180, 1265-1272) and expressed in the baculovirus-insect cell system. Baculovirus-infected insect cells from a 23 I fermentor are centrifuged off (3000×g, 15 minutes, 4° C.) 60 hours after the infection, re-suspended in Tris buffer (5 mM, pH 7.4, 1 mM MgCl2) and again centrifuged. After a further re-suspension and centrifugation the cells are suspended in 800 ml of the same buffer and freeze-dried at -120° C. The cells disintegrate when the suspension in this hypotonic buffer mixture is thawed. After a repeated freeze-drying/thawing cycle the suspension is homogenized and centrifuged (25000 x g, 15 minutes, 4° C.). After suspension in Tris buffer (75 mM, pH 7.4, 25 mM MgCl2, 250 mM sucrose) 1 ml aliquots (protein content about 3.5 mg/ml) are stored at -85° C.
as §1, with “buffer” for “buffer,”, “5” for “35”, “I-endothelin” for “I-endotheline”, “Ci/mMol)” for “(Ci/mMol)”, “[…])” for “pM)”
as §2

SMILES | IC50 (ETB receptors) [nM] | IC50 (human ETA receptors) [µM]
COc1ccccc1Oc1c(NS(=O)(=O)c2ccc(C(C)(C)C)cc2)nc(C(=O)Nc2ccccc2)nc1OCCO [Example 8, 6-(4-tert.Butyl-phenylsulphonylamino)-5-(2-methoxy-phenoxy)-4-(2-hydroxy-ethoxy)-pyrimidine-2-carboxylic acid phenylamide] | 60 | 13
COc1ccc(S(=O)(=O)Nc2nc(C(=O)Nc3ccccc3)nc(OCCO)c2Oc2cccc(OC)c2)cc1 [Example 7, 4-(2-Hydroxy-ethoxy)-5-(3-methoxy-phenoxy)-6-(4-methoxy-phenylsulphonylamino)-pyrimidine-2-carboxylic acid phenylamide] | 300 | 18.2
COc1cccc(Oc2c(NS(=O)(=O)c3ccc(C(C)(C)C)cc3)nc(C(=O)Nc3ccccc3)nc2OCCO)c1 [Example 6, 6-(4-tert.butyl-phenylsulphonylamino)-4-(2-hydroxy-ethoxy)-5-(3-methoxy-phenoxy)-pyrimidine-2-carboxylic acid phenylamide] |  | 38
COc1ccc(Cl)c(Oc2c(NS(=O)(=O)c3ccc(C(C)(C)C)cc3)nc(C(=O)O)nc2OCCO)c1 [Example 2, 4-(4-tert.Butyl-phenylsulphonylamino)-5-(2-chloro-5-methoxy-phenoxy)-6-(2-hydroxy-ethoxy)-pyrimidine-2-carboxylic acid] |  | 1.83
COc1cccc(Oc2c(NS(=O)(=O)c3ccc(C(C)(C)C)cc3)nc(C(=O)Nc3nnn[nH]3)nc2OCCO)c1 [Example 10, 4-(4-tert.Butyl-phenylsulphonylamino)-6-(2-hydroxy-ethoxy)-5-(3-methoxy-phenoxy)-pyrimidine-2-carboxylic acid (1 H-tetrazol-5-yl)-amide] | 140 | 13
COc1cccc(Oc2c(NS(=O)(=O)c3ccc(C(C)(C)C)cc3)nc(C(=O)O)nc2OCCO)c1 [Example 1, 6-(4-tert.butyl-phenylsulphonylamino)-4-(2-hydroxy-ethoxy)-5-(3-methoxy-phenoxy)-pyrimidine-2-carboxylic acid] | 80 | 73
COc1ccccc1Oc1c(NS(=O)(=O)c2ccc(C(C)(C)C)cc2)nc(C(=O)O)nc1OCCO [Example 5, 6-(4-tert.butyl-phenylsulphonylamino)-4-(2-hydroxy-ethoxy)-5-(2-methoxy-phenoxy)-pyrimidine-2-carboxylic acid] | 290 | 16.4
COc1ccc(Cl)c(Oc2c(NS(=O)(=O)c3ccc(C(C)(C)C)cc3)nc(C(=O)Nc3ccccc3)nc2OCCO)c1 [Example 9, 4-(4-tert.Butyl-phenylsulphonylamino)-5-(2-chloro-5-methoxy-phenoxy)-6-(2-hydroxy-ethoxy)-pyrimidine-2-carboxylic acid phenylamide] | 86 | 21.4
